The values that follow come from US20180000744A1, “NANOENCAPSULATED COMPOSITIONS” (Georgia Southern Research and Service Foundation, Inc., priority 2016, published 2018).

The test system of this experiment is Human prostatic cancer cell PC3. Nature of the experiment: In vitro cytotoxicity / biocompatibility test, MTS assay. Type of experiment: cell-based. The settings on record: 5 μM initial drug concentration in the media, 48 hours. On the procedure: Human prostatic cancer cell PC3 were used to test the biocompatibility and cytotoxicity of FU loaded PCL nanofibers. Human prostatic cancer cell derived from metastatic site (bone) was purchased from ATCC, USA. 57 ml of fetal bovine serum (USA origin purchased from Sigma Aldrich), 7 ml of Penicillin-Streptomycin (Life Technologies) and 6 ml of HEPES (Life Technologies) was added to 500 ml RPMI-1640 medium (Fisher Scientific). This media is called R+ media. 96 well plate were used to grow PC3 cells (sterile and flat bottom type purchased from fisher scientific). 100 μL of PC3 cells at 8×10^4 cells/ml were added on each wells of 96 well plate for all tests. PC3 cells were incubated at 37° C. in a humidified 5% CO2 atmosphere for 24 hours before performing any test. […]
The cytotoxicity of NFs set A and D was assessed. […]
96 well plates were incubated at 37° C. in a humidified, 5% CO2 atmosphere for 48 hours to give sufficient time for the fluorouracil to inhibit essential biosynthetic process of the PC3 cells and thus cause cell death. […] Well plates were kept again in CO2 incubator for 3 hours and then their absorbance were measured at 490 nm using UV-Vis spectrometer. Absorbance of cells with different concentration of drug was compared with the absorbance of PC3 cells with no drug to determine the cell viability. […]
(In general: Formazan colour is commonly taken as a measure of viable cells.)

Molecules are shown by their SMILES.

Compound `O=c1[nH]cc(F)c(=O)[nH]1` [pristine FU, 5-Fluorouracil] returned an alive cells of 43%.
